This is an account of results in US6703502B2 (priority 1997, dated 2004).

For this assay, the target named is α7 nAChR subtype (Rattus norvegicus, UniProt Q05941). It is filed as binding. The conditions noted are these: read-out: KD of radioligand.
Chain of α7 nAChR subtype (Q05941 23-502 limits assumed): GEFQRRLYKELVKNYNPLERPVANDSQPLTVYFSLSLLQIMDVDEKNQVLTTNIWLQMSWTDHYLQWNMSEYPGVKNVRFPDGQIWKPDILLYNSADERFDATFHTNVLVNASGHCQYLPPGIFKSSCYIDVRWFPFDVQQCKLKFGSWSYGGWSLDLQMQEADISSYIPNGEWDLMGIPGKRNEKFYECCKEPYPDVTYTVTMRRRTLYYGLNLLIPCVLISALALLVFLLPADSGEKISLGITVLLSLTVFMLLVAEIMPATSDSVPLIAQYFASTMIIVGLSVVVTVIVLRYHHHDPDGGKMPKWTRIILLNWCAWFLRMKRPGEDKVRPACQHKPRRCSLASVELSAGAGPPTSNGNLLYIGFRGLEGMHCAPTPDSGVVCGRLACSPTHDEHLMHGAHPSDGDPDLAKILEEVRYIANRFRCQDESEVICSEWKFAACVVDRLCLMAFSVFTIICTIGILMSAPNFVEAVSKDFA

As usually defined, the Kd is the free concentration of one partner at which half of the binding sites on the other are occupied at equilibrium, for simple one-to-one binding. Regarding [^125I]-α-Bungarotoxin [^125I-α-BTX], the dissociation constant (Kd) was 1.67 nM.
